Measured values published in patent US20260048099A1, “SYNERGISTIC INTERACTIONS FOR IMPROVED CANCER TREATMENT” (THE UNITED STATES OF AMERICA, AS REPRESENTED BY THE …, priority 2022, published 2026).

B1: IL-12p70: active IL-12 heterodimer of IL-12A (p35) and IL-12B (p40), referred to as p70 (protein, UniProt P29459 23-219; P29460 23-328, looked up)
Interleukin-12 subunit alpha: RNLPVATPDPGMFPCLHHSQNLLRAVSNMLQKARQTLEFYPCTSEEIDHEDITKDKTSTVEACLPLELTKNESCLNSRETSFITNGSCLASRKTSFMMALCLSSIYEDLKMYQVEFKTMNAKLLMDPKRQIFLDQNMLAVIDELMQALNFNSETVPQKSSLEEPDFYKTKIKLCILLHAFRIRAVTIDRVMSYLNAS
Interleukin-12 subunit beta: IWELKKDVYVVELDWYPDAPGEMVVLTCDTPEEDGITWTLDQSSEVLGSGKTLTIQVKEFGDAGQYTCHKGGEVLSHSLLLLHKKEDGIWSTDILKDQKEPKNKTFLRCEAKNYSGRFTCWWLTTISTDLTFSVKSSRGSSDPQGVTCGAATLSAERVRGDNKEYEYSVECQEDSACPAAEESLPIEVMVDAVHKLKYENYTSSFFIRDIIKPDPPKNLQLKPLKNSRQVEVSWEYPDTWSTPHSYFSLTFCVQVQGKSKREKKDRVFTDKTSATVICRKNASISVRAQDRYYSSSWSEWASVPCS

Assays:
[1] = test system: tumor-infiltrating CD8^+T, NK cells and DC populations in EO771 tumors; assay: Flow cytometry and IHC of immune infiltrates in EO771 tumors and draining lymph nodes; type: in vivo, C57BL/6 mice; details: flow cytometry
Description: EO771 tumors were analyzed by flow cytometry and immunohistochemistry (IHC) to explore the changes in the tumor immune phenotype upon hetIL-15 treatment. The shorter treatment schedule consisting of 3 hetIL-15 injections was used for these analyses and the tumors were assessed 48 h after the last injection (FIG. 1A). […] Overall, hetIL-15 administration altered the tumor microenvironment by promoting the intratumoral infiltration of activated cytotoxic T and NK cells, as we previously reported (Bergamaschi et al., 2020; Ng et al., 2017).
Guided by our transcriptomic data and our recent report (Bergamaschi et al., 2020), we established a flow cytometry staining protocol (FIG. 3B) that allows distinction of different myeloid cell populations (Bottcher et al., 2018; Guilliams et al., 2016). CD103^+cDC1s were defined as Lin(NK1.1,CD19,B220,CD3)^negCD64^−MHCII^+CD11c^+CD103^+CD11b^−; CD11b^+cDC2s were defined as Lin(NK1.1,CD19,B220,CD3)^negCD64^−MHCII^+CD11c^+CD103^−CD11b^+ and macrophages were defined as Lin(NK1.1, CD19,B220,CD3)^negCD64^+F4/80^+. […] Importantly, tumor infiltration by both […] and CD103^intCD11b^+DCs inversely correlated with the EO771 tumor size in hetIL-15 treated animals 48 hrs after the 3rd hetIL-15 injection (FIG. 3F). In contrast, no correlation between intratumoral CD11b^+cDC2s and tumor size was observed (FIG. 3F).
Tissue samples, including tumors, were fixed in 10% neutral buffered formalin (NBF, Sigma) then routinely processed and paraffin embedded. Tumor and lung sections were dewaxed and rehydrated and then were stained with hematoxylin and eosin (H&E). For immunohistochemistry, sections were antigen-retrieved with heat-induced or enzymatic method. Peroxidase activity was blocked using 1.5% hydrogen peroxide. Sections were blocked with different blocking protocols, depending on the antibody. […]
At necropsy tumors and dLNs were processed for flow cytometric analysis. […] The samples were acquired on a Fortessa (BD Biosciences) flow cytometer, and the data were analyzed using the FlowJo software (Tree Star).

xenograft models = details: cited from earlier work
NK-92 cells = assay: IFN-γ production by stimulated NK-92 cells; type: cell-based; details: stimulation of NK-92 cells

Molecule | Intratumoral CD11b+cDC2 (cells per gram of tissue) [1] | Intratumoral CD103+cDC1 (cells per gram of tissue) [1] | Intratumoral CD103intCD11b+DC (cells per gram of tissue) [1] | Lowest dose with activity in animal models (xenograft models; doses as low as) | Efficacy and tolerability (xenograft models; xenograft models) | IFN-γ production (NK-92 cells)
CC(C)(C)c1cc(NC(=O)Nc2ccc(-c3cn4c(n3)sc3cc(OCCN5CCOCC5)ccc34)cc2)no1.Cl.Cl [AC220, N-(5-tert-butyl-isoxazol-3-yl)-N′-{4-[7-(2-morpholin-4-yl-ethoxy)imidazo[2,1-b][1,3]benzothiazol-2-yl]phenyl}urea dihydrochloride] | increased infiltration of CD11b^+cDC2s | a minor effect on CD103+cDC1s, decreasing this DC population | no significant difference | 1 mg/kg | good efficacy and tolerability | 
B1 |  |  |  |  |  | results in IFN-γ production
